Test results reported in paper PMC11374660, “The novel family of Warbicin® compounds inhibits glucose uptake both in yeast and human cells and restrains cancer cell proliferation” (Frontiers in Oncology, 2024).

Test system: yeast tps1Δ cells
Assay: Glu6P and Fru1,6bisP accumulation in tps1Δ yeast cells after glucose addition
Assay type: cell-based, S. cerevisiae
Details: compound added at -10 min
Procedure: For measuring metabolite levels, yeast cells were typically grown in Complete Synthetic medium. […] However, when comparing the effect of Warbicin ® compounds on metabolite profiles of wild type and tps1Δ strains, cells were grown on 110 mM galactose. When grown to exponential phase, cells were harvested by centrifugation and washed twice with ice-cold 25 mM 2-(N-Morpholino)ethanesulfonic acid (MES) buffer, pH 6. Cells were suspended in Complete Synthetic medium without sugar at a concentration of 75 mg (wet weight)/mL followed by a temperature equilibration at 30°C in a shaking water bath for 30 min. Depending on the experiment, a final concentration of 2.5 mM, 7.5 mM or 10 mM glucose was added to the cell suspension. Compounds were added 10 min prior to glucose addition. […]
Through endpoint measurement of the absorbance of NADH or NADPH at 340 nm, metabolite concentrations in the yeast cells were calculated by applying Lambert’s Law. Different metabolites were measured through the use of coupled enzymatic reactions. […] Depending on the measured metabolite, different co-factors and auxiliary enzymes were added. For measuring glucose-6-phosphate, 1.07 mM NADP^+ was added to the assay buffer after which the baseline absorbance was measured. […] After stabilization of the OD340 spectra, ATP concentrations were measured by additionally adding 10 mM MgCl2 and 0.5 mM glucose to the assay buffer. […]

Cc1nc(Sc2nnc3n2CCCCC3)c2c(-c3cccs3)csc2n1 [WBC-A]
hyperaccumulation of Glu6P and Fru1,6bisP after addition of 2.5 mM glucose: concentration-dependent gradual drop in Glu6P and a more precipitous drop in Fru1,6bisP
